# In US5043165A, “Novel liposome composition for sustained release of steroidal drugs” (priority 1988, dated 1991):
# “Also recorded” adds a separate entry of the source.
# What was measured:
# [1] = Plasma pharmacokinetics of 14C-BDP after i.v. injection or intratracheal instillation; assay type: in vivo, male Sprague-Dawley rats; conditions: rat
# Protocol: In order to determine the rate of absorption of the steroidal drug into the plasma after intratracheal administration, various formulations containing either the free steroid or steroid encapsulated in liposomes were prepared and tested.
# The free drug control was administered intravenously to provide relative basis for measurement of bioavailability. […] The resulting plasma profiles, given in FIG. 1, illustrate the physiological removal of steroid from the blood circulation. […] As will be seen from FIG. 2, the rate of absorption of free steroid from lungs to the plasma is rapid and the physiological removal from the plasma follows the same course as that of the free drug. […] Thus, the rate of absorption from lungs to plasma of free steroid and steroid encapsulated in conventional liposomes is not much different and follows similar curve.
# Plasma and lung levels of radiolabel were measured as previously described. The decrease in plasma concentration versus time following free drug administration was biphasic (FIG. 4).
# [2] = TLC assay of lung samples for metabolism of BDP before absorption; assay type: in vivo, rats; conditions: thin layer chromatographic assay
# [3] = Partition coefficient between octanol and phosphate buffer saline; assay type: physicochemical; conditions: pH 7.4
# [4] = rat, in vivo
# Excerpt: The resulting slopes and intercepts were used as estimates of the absorption rate constant (Ka) and the amount of drug in the lungs at zero time, respectively. […] These later values relate to the elimination of radiolabel already released from the liposomes and distributed to the lungs. The amount of drug in the lungs at time zero can be used to determine the amount of free drug in the formulation, since free drug is very rapidly absorbed from the lungs (Dose=free drug+amount in lungs at t=0). This amount also includes any liposome associated drug that was rapidly released ("burst" effect).
# All studies were performed in male Sprague-Dawley rats weighing 250 to 450 g. After fasting for 16 hours, animals were anesthetized by i.m. injection of ketamine (25 mg/kg), xylazine (5 mg/kg) and acepromazine (0.5 mg/ml). During the procedure the animal's body temperature was maintained with a 37° C. heating pad. Additional anesthetic was administered as required, using half the original dose. A midline incision was made in the neck and the right jugular vein and left carotid artery were cannulated with short lengths of polyethylene tubing to which a 23 ga Luer stub adapter (Clay Adams #7565) and plastic 3-way stopcock (Argyle #173518) were attached. Blood samples (0.5-4 ml) were removed from the carotid arterial cannula after first flushing with fresh blood to clear the line. […]
# Blood samples were removed at four time points during the study from each rat, centrifuged, and the serum was removed and stored frozen (-20°C.) until assayed. […] The homogenate was briefly centrifuged and measured aliquots of the supernate removed to Teflon-stoppered glass tubes which were stored at -20° C. or below until assayed.
# The actual dose administered in each study was determined by measurement of duplicate dose control samples of the formulation which were delivered by the same apparatus used in dosing the animals.
# In some studies, the plasma concentration of radiolabel was also measured over the course of the experiment.
# [5] = in vivo; cited from earlier work
# [6] = mouse, in vivo, iv
# Protocol: The nonconventional steroidal liposome composition prepared according to Example III was administered intravenously and the ability of mouse organs to bind and/or take up the radiolabel was studied.
# All experiments were carried out using groups of male ICR mice weighing approximately 25 grams (the weight of any individual mouse was not more than 10% different from the group mean weight). Doses of nonconventional liposomes containing beclomethosome dipropionate spiked according to Example III were administered to a mouse via a tail vein. At the end of the experimental period mice were lightly anesthesized with diethyl ether and a 1 ml blood sample was rapidly removed from the jugular vein with a heparinized syringe. […]
# All organ and carcass samples were stored at -20° prior to analysis. […] Dried samples were analyzed for total ^14 C radioactivity by scintillation counting following combustion in a Packard Sample Oxidizer, Combustions were carried out in series, with the inclusion of appropriate blanks. A duplicate sample from every third animal was analyzed to monitor the combustion reproducibility. […] Total radioactivity in liver, spleen, carcass and 1.0 ml blood was calculated and converted to percent of encapsulated dose. […] Total radioactivity in vivo was estimated by summing values for liver, spleen, total blood volume and carcass.
# [7] = Intrathecal administration: drug in cranial and spinal compartments and cerebrospinal fluid; conditions: 50 ul, 20 mg/ml
compound,measurement,setting,value
"CCC(=O)OCC(=O)[C@@]1(OC(=O)CC)[C@@H](C)C[C@H]2[C@@H]3CCC4=CC(=O)C=C[C@]4(C)[C@@]3(Cl)[C@@H](O)C[C@@]21C [BDP, beclomethasone dipropionate]",absorption from lungs (in words),"[1]; intratracheal instillation, listed as free BDP",rapid; also recorded: quickly removed from the lungs into plasma
same,plasma kinetics (in words),[1]; compared with free drug,biphasic
same,metabolism of BDP prior to leaving the lungs,[2],no detectable metabolism of BDP prior to leaving the lungs
same,BDP associated with the octanol (octanol/phosphate buffer saline partition),[3],95%
same,"apparent half-life in lungs (elimination of radiolabel already released, not absorption)",[4],3.0 h
same,drug absorbed before the first time point,[4],over 98%
same,radiolabel removed/absorbed from the lungs,[4]; iv,99.7%
same,secondary adverse reactions,[5],"localized infection of the mouth and pharynx with Candida albicans or Aspergillus niger, hoarseness and dry mouth"
"C[C@H]1C[C@H]2[C@@H]3CCC4=CC(=O)C=C[C@]4(C)[C@@]3(Cl)[C@@H](O)C[C@]2(C)[C@@]1(O)C(=O)CO [Free beclomethasone, beclomethasone]",persistence in plasma,[6],disappears rapidly from the plasma
"C[C@]12CCC(=O)C=C1CC[C@@H]1[C@@H]2C(=O)C[C@@]2(C)[C@H]1CC[C@]2(O)C(=O)CO [free cortisone, cortisone]",time to almost complete disappearance from cranial or spinal compartments,[7],≤ 2.8 h
same,time to elimination from cerebrospinal fluid,[7],≤ 2.8 h
